From patent US8703701B2 (Indiana University Research and Technology Corporation, priority 2009, dated 2014)
Starred links: 1 amine or outer side, 2 acyl side, 3 side chain; linkers in the order of their positions; H or OH if unused. Non-standard residues stand in square brackets, D forms with d. Residues, ends and D or L forms follow the SMILES beside them. Groups on a side chain read outwards from the residue. *: point of attachment. γGlu = O=C(O)[C@H](CCC(=O)[*:2])N[*:1]; Palmitoyl = CCCCCCCCCCCCCCCC(=O)*; Aib = CC(C)(N)C(=O)O

Tests used:
glucagon receptor = target: T1, glucagon receptor (Homo sapiens, UniProt P47871); assay: cAMP induction, firefly luciferase reporter assay, glucagon receptor; format: cell-based; conditions: compared to native glucagon
T1 construct: expressed in transfected cells; host or cells: HEK293
Procedure: (§1) The ability of each peptide to induce cAMP was measured in a firefly luciferase-based reporter assay.
(§2) At the end of the incubation, 100 μL of LucLite luminescence substrate reagent (Perkin Elmer, Wellesley, Mass.) were added to each well. The plate was shaken briefly, incubated 10 min in the dark and light output was measured on MicroBeta-1450 liquid scintillation counter (Perkin-Elmer, Wellesley, Mass.).

GLP-1 receptor = target: T2, GLP-1 receptor (Homo sapiens, UniProt P43220); assay: cAMP induction, firefly luciferase reporter assay, GLP-1 receptor; format: cell-based; conditions: for Activity at GLP-1 Receptor % Relative Activity: compared to native GLP-1; for EC50: Activity at GLP-1 Receptor EC50 [pM]
T2 construct: expressed in transfected cells; host or cells: HEK293
Procedure: as §1, §2

T1 sequence (P47871 26-477): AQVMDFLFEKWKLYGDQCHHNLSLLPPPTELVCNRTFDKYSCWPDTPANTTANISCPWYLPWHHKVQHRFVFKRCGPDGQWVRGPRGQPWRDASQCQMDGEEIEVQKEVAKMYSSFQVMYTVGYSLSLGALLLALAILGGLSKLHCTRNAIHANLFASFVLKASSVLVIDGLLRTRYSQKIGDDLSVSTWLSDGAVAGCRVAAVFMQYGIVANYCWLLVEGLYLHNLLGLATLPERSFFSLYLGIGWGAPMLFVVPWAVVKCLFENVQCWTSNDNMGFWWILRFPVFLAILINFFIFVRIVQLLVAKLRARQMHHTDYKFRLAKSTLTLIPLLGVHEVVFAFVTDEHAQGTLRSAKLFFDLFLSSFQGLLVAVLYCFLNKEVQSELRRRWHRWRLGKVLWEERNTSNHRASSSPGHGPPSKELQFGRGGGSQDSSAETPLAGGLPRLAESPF
T2 sequence (P43220 24-463): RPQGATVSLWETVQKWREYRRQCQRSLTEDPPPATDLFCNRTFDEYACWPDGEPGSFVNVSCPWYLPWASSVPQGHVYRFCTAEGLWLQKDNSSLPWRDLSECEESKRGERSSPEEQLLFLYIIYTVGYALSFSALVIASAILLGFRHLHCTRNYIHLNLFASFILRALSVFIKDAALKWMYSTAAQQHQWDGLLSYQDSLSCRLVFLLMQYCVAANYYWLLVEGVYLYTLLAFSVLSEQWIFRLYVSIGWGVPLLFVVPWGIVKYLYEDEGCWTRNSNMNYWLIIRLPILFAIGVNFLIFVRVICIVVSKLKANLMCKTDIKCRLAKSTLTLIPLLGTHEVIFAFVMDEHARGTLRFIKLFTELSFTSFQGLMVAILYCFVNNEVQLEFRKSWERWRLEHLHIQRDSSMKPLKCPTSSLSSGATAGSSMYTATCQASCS

Structure (SMILES) | Activity at Glucagon Receptor % Relative Activity (glucagon receptor; Table 3A) [%] | Activity at GLP-1 Receptor % Relative Activity (GLP-1 receptor; Table 3A) [%] | EC50 (GLP-1 receptor; Table 3A) [pM] | Activity at Glucagon Receptor % Relative Activity (glucagon receptor; Table 3B) [%] | EC50 (GLP-1 receptor; Table 3B) [pM] | Activity at GLP-1 Receptor % Relative Activity (GLP-1 receptor; Table 3B) [%]
CCCCCCCCCCCCCCCC(=O)N[C@@H](CCC(=O)NCCCC[C@H](NC(=O)[C@H](CC(=O)O)NC(=O)[C@H](CO)NC(=O)[C@@H](NC(=O)[C@H](Cc1ccccc1)NC(=O)[C@@H](NC(=O)CNC(=O)[C@H](CCC(N)=O)NC(=O)C(C)(C)NC(=O)[C@@H](N)Cc1c[nH]cn1)[C@@H](C)O)[C@@H](C)O)C(=O)N[C@@H](CO)C(=O)N[C@@H](CCCCN)C(=O)N[C@@H](Cc1ccc(O)cc1)C(=O)N[C@@H](CC(C)C)C(=O)N[C@@H](CC(=O)O)C(=O)NC(C)(C)C(=O)N[C@@H](CCCNC(=N)N)C(=O)N[C@@H](C)C(=O)N[C@@H](C)C(=O)N[C@@H](CCC(N)=O)C(=O)N[C@@H](CC(=O)O)C(=O)N[C@@H](Cc1ccccc1)C(=O)N[C@H](C(=O)N[C@@H](CCC(N)=O)C(=O)N[C@@H](Cc1c[nH]c2ccccc12)C(=O)N[C@@H](CC(C)C)C(=O)N[C@@H](CCSC)C(=O)N[C@@H](CC(=O)O)C(=O)N[C@H](C(N)=O)[C@@H](C)O)C(C)C)C(=O)O [compound 43] (H-H[Aib]QGTFTSDK([γGlu-Palmitoyl])SKYLD[Aib]RAAQDFVQWLMDT-NH2; N-terminus assumed) | 467 | 575 | – | – | – | –
CCCCCCCCCCCCCCCC(=O)N[C@@H](CCC(=O)N[C@@H](CCC(=O)NCCCC[C@H](NC(=O)[C@H](CC(=O)O)NC(=O)[C@H](CO)NC(=O)[C@@H](NC(=O)[C@H](Cc1ccccc1)NC(=O)[C@@H](NC(=O)CNC(=O)[C@H](CCC(N)=O)NC(=O)C(C)(C)NC(=O)[C@@H](N)Cc1c[nH]cn1)[C@@H](C)O)[C@@H](C)O)C(=O)N[C@@H](CO)C(=O)N[C@@H](CCCCN)C(=O)N[C@@H](Cc1ccc(O)cc1)C(=O)N[C@@H](CC(C)C)C(=O)N[C@@H](CC(=O)O)C(=O)NC(C)(C)C(=O)N[C@@H](CCCNC(=N)N)C(=O)N[C@@H](C)C(=O)N[C@@H](C)C(=O)N[C@@H](CCC(N)=O)C(=O)N[C@@H](CC(=O)O)C(=O)N[C@@H](Cc1ccccc1)C(=O)N[C@H](C(=O)N[C@@H](CCC(N)=O)C(=O)N[C@@H](Cc1c[nH]c2ccccc12)C(=O)N[C@@H](CC(C)C)C(=O)N[C@@H](CC(C)C)C(=O)N[C@@H](CC(=O)O)C(=O)N[C@H](C(N)=O)[C@@H](C)O)C(C)C)C(=O)O)C(=O)O [compound 49] | 511 | 375 | 6 | – | – | –
CCCCCCCCCCCCCCCC(=O)NCCCC[C@H](NC(=O)[C@H](CC(=O)O)NC(=O)[C@H](CO)NC(=O)[C@@H](NC(=O)[C@H](Cc1ccccc1)NC(=O)[C@@H](NC(=O)CNC(=O)[C@H](CCC(N)=O)NC(=O)C(C)(C)NC(=O)[C@@H](N)Cc1c[nH]cn1)[C@@H](C)O)[C@@H](C)O)C(=O)N[C@@H](CO)C(=O)N[C@@H](CCCCN)C(=O)N[C@@H](Cc1ccc(O)cc1)C(=O)N[C@@H](CC(C)C)C(=O)N[C@@H](CC(=O)O)C(=O)NC(C)(C)C(=O)N[C@@H](CCCNC(=N)N)C(=O)N[C@@H](C)C(=O)N[C@@H](C)C(=O)N[C@@H](CCC(N)=O)C(=O)N[C@@H](CC(=O)O)C(=O)N[C@@H](Cc1ccccc1)C(=O)N[C@H](C(=O)N[C@@H](CCC(N)=O)C(=O)N[C@@H](Cc1c[nH]c2ccccc12)C(=O)N[C@@H](CC(C)C)C(=O)N[C@@H](CCSC)C(=O)N[C@@H](CC(=O)O)C(=O)N[C@H](C(N)=O)[C@@H](C)O)C(C)C [compound 69] (H-H[Aib]QGTFTSDK(Palmitoyl)SKYLD[Aib]RAAQDFVQWLMDT-NH2; N-terminus assumed) | – | – | – | 325 | 5 | 440
